Measurements from patent US12435044B2, “Pyridazinone herbicides and pyridazinone intermediates used to prepare a herbicide” (FMC Corporation, priority 2018, dated 2025).

Key:
Experiment in all cases: Test I pre-/postemergence, mixtures of Cpd. No. 20 with saflufenacil or pyroxasulfone
Format in all cases: in vivo
[1] = test system: common ragweed (AMBEL; Ambrosia artemisiifolia); details: for Plant response rating (0 to 100 scale): Preemergence, AMBEL
Source text: (§1) This test evaluated the effect of mixtures of Cpd. No. 20 with saflufenacil or pyroxasulfone on several plant species. Seeds of plant species selected from corn (ZEAMD; Zea mays, cv. ‘Pioneer 1184’), soybean (GLXMA; Glycine max, cv. Pioneer 35T58), giant foxtail (SETFA; Setaria faberi), palmer amaranth (AMAPA; Amaranthus palmeri), common waterhemp (AMATU; Amaranthus rudis), mare's tail (ERICA; Conyza canadensis), and common ragweed (AMBEL; Ambrosia artemisiifolia) were planted in pots containing Tama Silt Loam soil and treated preemergence with a directed soil spray using test chemicals formulated in a non-phytotoxic solvent mixture which included a surfactant.
(§2) At the same time, plants selected from these crop and weed species were planted in pots containing Redi-Earth® planting medium (Scotts Company, 14111 Scottslawn Road, Marysville, Ohio 43041) comprising spaghnum peat moss, vermiculite, wetting agent and starter nutrients and treated postemergence with test chemicals formulated in the same manner. Plants ranged in height from 2 to 10 cm and were in the one- to two-leaf stage for the postemergence treatment. Treated plants and untreated controls were maintained in a greenhouse for approximately 14-21 d, after which time all treated plants were compared to untreated controls and visually evaluated for injury. Plant response ratings, summarized in Tables 11 to 14, are based on a 0 to 100 scale where 0 is no effect and 100 is complete control. A dash (-) response means no test result. Test results are presented as a mean of 4 reps.

[2] = test system: common waterhemp (AMATU; Amaranthus rudis); details: for Plant response rating (0 to 100 scale): Preemergence, AMATU
Source text: as §1, §2

[3] = test system: corn (ZEAMD; Zea mays, cv. ‘Pioneer 1184’); details: for Plant response rating (0 to 100 scale): Preemergence, ZEAMD
Source text: as §1, §2

[4] = test system: giant foxtail (SETFA; Setaria faberi); details: for Plant response rating (0 to 100 scale): Preemergence, SETFA
Source text: as §1, §2

[5] = test system: mare's tail (ERICA; Conyza canadensis); details: for Plant response rating (0 to 100 scale): Preemergence, ERICA
Source text: as §1, §2

[6] = test system: palmer amaranth (AMAPA; Amaranthus palmeri); details: for Plant response rating (0 to 100 scale): Preemergence, AMAPA
Source text: as §1, §2

[7] = test system: soybean (GLXMA; Glycine max, cv. Pioneer 35T58); details: for Plant response rating (0 to 100 scale): Preemergence, GLXMA
Source text: as §1, §2

Structure (SMILES) | AMBEL plant response rating, 0 to 100 scale ([1]; postemergence, 4 g a.i./ha) | AMBEL plant response rating, 0 to 100 scale ([1]; postemergence, 8 g a.i./ha) | AMATU plant response rating, 0 to 100 scale ([2]; postemergence, 4 g a.i./ha) | AMATU plant response rating, 0 to 100 scale ([2]; postemergence, 8 g a.i./ha) | ZEAMD plant response rating, 0 to 100 scale ([3]; postemergence, 4 g a.i./ha) | ZEAMD plant response rating, 0 to 100 scale ([3]; postemergence, 8 g a.i./ha) | SETFA plant response rating, 0 to 100 scale ([4]; postemergence, 4 g a.i./ha) | SETFA plant response rating, 0 to 100 scale ([4]; postemergence, 8 g a.i./ha) | ERICA plant response rating, 0 to 100 scale ([5]; postemergence, 4 g a.i./ha) | ERICA plant response rating, 0 to 100 scale ([5]; postemergence, 8 g a.i./ha) | AMAPA plant response rating, 0 to 100 scale ([6]; postemergence, 4 g a.i./ha) | AMAPA plant response rating, 0 to 100 scale ([6]; postemergence, 8 g a.i./ha) | GLXMA plant response rating, 0 to 100 scale ([7]; postemergence, 4 g a.i./ha) | GLXMA plant response rating, 0 to 100 scale ([7]; postemergence, 8 g a.i./ha) | further results
Cn1nc(C(F)(F)F)c(CS(=O)(=O)C2=NOC(C)(C)C2)c1OC(F)F [Pyroxasulfone, pyroxasulfone, reference compound] | 0 | 24 | 0 | 0 | 0 | 0 | 0 | 6 | 0 | 0 | 15 | 0 | 0 | 15 | AMBEL plant response rating, 0 to 100 scale ([1]; preemergence, 4 g a.i./ha): 0; AMBEL plant response rating, 0 to 100 scale ([1]; preemergence, 8 g a.i./ha): 0; AMATU plant response rating, 0 to 100 scale ([2]; preemergence, 4 g a.i./ha): 5; AMATU plant response rating, 0 to 100 scale ([2]; preemergence, 8 g a.i./ha): 45; ZEAMD plant response rating, 0 to 100 scale ([3]; preemergence, 4 g a.i./ha): 0; ZEAMD plant response rating, 0 to 100 scale ([3]; preemergence, 8 g a.i./ha): 0; SETFA plant response rating, 0 to 100 scale ([4]; preemergence, 4 g a.i./ha): 76; SETFA plant response rating, 0 to 100 scale ([4]; preemergence, 8 g a.i./ha): 98; ERICA plant response rating, 0 to 100 scale ([5]; preemergence, 4 g a.i./ha): 79; ERICA plant response rating, 0 to 100 scale ([5]; preemergence, 8 g a.i./ha): 100; AMAPA plant response rating, 0 to 100 scale ([6]; preemergence, 4 g a.i./ha): 0; AMAPA plant response rating, 0 to 100 scale ([6]; preemergence, 8 g a.i./ha): 38; GLXMA plant response rating, 0 to 100 scale ([7]; preemergence, 4 g a.i./ha): 0; GLXMA plant response rating, 0 to 100 scale ([7]; preemergence, 8 g a.i./ha): 0
CC(C)N(C)S(=O)(=O)NC(=O)c1cc(-n2c(=O)cc(C(F)(F)F)n(C)c2=O)c(F)cc1Cl [Saflufenacil, saflufenacil, reference compound] | 100 | 100 | 85 | 90 | 15 | 70 | 23 | 55 | 95 | 100 | 84 | 70 | 74 | 91 | Plant response rating (0 to 100 scale) ([1]; Saflufenacil 4 g a.i./ha alone): 96; Plant response rating (0 to 100 scale) ([1]; Saflufenacil 8 g a.i./ha alone): 100; Plant response rating (0 to 100 scale) ([2]; Saflufenacil 4 g a.i./ha alone): 55; Plant response rating (0 to 100 scale) ([2]; Saflufenacil 8 g a.i./ha alone): 84; Plant response rating (0 to 100 scale) ([3]; Saflufenacil 4 g a.i./ha alone): 0; Plant response rating (0 to 100 scale) ([3]; Saflufenacil 8 g a.i./ha alone): 0; Plant response rating (0 to 100 scale) ([4]; Saflufenacil 4 g a.i./ha alone): 0; Plant response rating (0 to 100 scale) ([4]; Saflufenacil 8 g a.i./ha alone): 0; Plant response rating (0 to 100 scale) ([5]; Saflufenacil 4 g a.i./ha alone): 94; Plant response rating (0 to 100 scale) ([5]; Saflufenacil 8 g a.i./ha alone): 100; Plant response rating (0 to 100 scale) ([6]; Saflufenacil 4 g a.i./ha alone): 35; Plant response rating (0 to 100 scale) ([6]; Saflufenacil 8 g a.i./ha alone): 88; Plant response rating (0 to 100 scale) ([7]; Saflufenacil 4 g a.i./ha alone): 0; Plant response rating (0 to 100 scale) ([7]; Saflufenacil 8 g a.i./ha alone): 0
